From Sander's compilation of Henry's law constants (doi:10.1515/zpch-1906-5519)

Experiment: Henry solubility constant Hcp at 298.15 K (mol/(m3 Pa))
Conditions: reference: Rex (1906)

In order of falling “Henry solubility constant Hcp” value:
1. BrCBr [dibromomethane]  0.011
2. ClCCl [dichloromethane]  0.0041
3. CI [iodomethane]  0.0019
4. CCI [iodoethane]  0.0015
5. CCBr [bromoethane]  0.0013
6. CCCBr [1-bromopropane]  0.0011
7. CCCI [1-iodopropane]  0.001
8. CC(C)Br [2-bromopropane]  0.0009
9. CC(C)I [2-iodopropane]  0.00085
10. CC(C)Cl [2-chloropropane]  0.00056
11. S=C=S [carbon disulfide]  0.00054
12. ClC(Cl)(Cl)Cl [tetrachloromethane]  0.00035
